# Key:
# [1] = tested on: control sera (pooled serum of ten healthy LUMC hospital workers; commercial negative donor pooled serum from the Dutch bloodbank); assay type: binding, human; parameters: Binding of Control serum LUMC to linear peptides / Binding of Control serum Blood-bank to linear peptides / Binding of Control serum LUMC to looped peptides / Binding of Control Serum Blood-Bank to Looped peptides / Binding of Control serum LUMC to linear peptides of the protein M of SARS-CoV Urbani / Binding of Control serum Blood-bank to linear peptides of the protein M of SARS-CoV Urbani / Binding of Control serum LUMC to looped peptides of the protein M of SARS-CoV Urbani / Binding of Control Serum Blood-Bank to Looped peptides of the protein M of SARS-CoV Urbani: unit not given here
# [2] = tested on: antibodies in sera from SARS patients (sera 1a, 1b, 2, 6, 37, 62, London, SARS-yellow, SARS-green); assay type: binding, human; parameters: Binding of serum 6 to linear peptides of protein X1 of SARS-CoV Urbani / Binding of serum 37 to linear peptides of protein X1 of SARS-CoV Urbani / Binding of serum 6 to looped/cyclic peptide (PEPSCAN-ELISA) / Binding of serum 37 to looped/cyclic peptide (PEPSCAN-ELISA) / Binding of serum 37 to looped/cyclic peptides of protein X1 of SARS-CoV Urbani / Binding of serum 6 to linear peptides of protein X2 / Binding of serum 37 to linear peptides of protein X2 / Binding of serum 37 to looped/cyclic peptides of protein X2 of SARS-CoV Urbani / Binding of serum 6 to linear peptides of protein M of SARS-CoV Urbani / Binding of serum 37 to linear peptides of protein M of SARS-CoV Urbani / Binding of serum 6 to looped/cyclic peptides of protein M of SARS-CoV Urbani / Binding of serum 37 to looped/cyclic peptides of protein M of SARS-CoV Urbani / Binding of serum 6 to linear peptides of protein X3 of SARS-CoV Urbani / Binding of serum 37 to linear peptides of protein X3 of SARS-CoV Urbani / Binding of serum 37 to looped/cyclic peptides of protein X3 of SARS-CoV Urbani / Binding of serum 6 to linear peptides of protein X4 of SARS-CoV Urbani / Binding of serum 37 to linear peptides of protein X4 of SARS-CoV Urbani / Binding of serum 37 to looped/cyclic peptides of protein X4 of SARS-CoV Urbani / Binding of serum 6 to linear peptides of protein X5 of SARS-CoV Urbani / Binding of serum 37 to linear peptides of protein X5 of SARS-CoV Urbani / Binding of serum 37 to looped/cyclic peptides of protein X5 of SARS-CoV Urbani / Binding of serum 6 to linear peptides of protein N of SARS-CoV Urbani / Binding of serum 37 to linear peptides of protein N of SARS-CoV Urbani / Binding of serum 6 to linear peptide (PEPSCAN-ELISA) / Binding of serum 1a to looped/cyclic peptides of protein N of SARS-CoV Urbani / Binding of serum 1b to looped/cyclic peptides of protein N of SARS-CoV Urbani / Binding of serum 2 to looped/cyclic peptides of protein N of SARS-CoV Urbani / Binding of serum 6 to looped/cyclic peptides of protein N of SARS-CoV Urbani / Binding of serum 37 to looped/cyclic peptides of protein N of SARS-CoV Urbani / Binding of serum 62 to looped/cyclic peptides of protein N of SARS-CoV Urbani / Binding of serum London to looped/cyclic peptides of protein N of SARS-CoV Urbani / Binding of serum SARS-green to looped/cyclic peptides of protein N of SARS-CoV Urbani: unit not given here
# [3] = tested on: rabbit serum obtained by immunizing a rabbit with the SARS-CoV strain Frankfurt 1; assay type: binding; parameters: Binding of a rabbit serum to linear peptides / Binding of a rabbit serum to looped peptides / Rabbit serum linear peptides / Rabbit serum looped peptides / Binding of a rabbit serum to linear peptides of protein N of SARS-CoV Urbani (Rabbit serum linear peptides) / Binding of a rabbit serum to looped/cyclic peptides of protein N of SARS-CoV Urbani (Rabbit serum looped peptides): unit not given here
Sequence,Binding of Control Serum Blood-Bank to Looped peptides [1],Binding of Control serum Blood-bank to linear peptides [1],Binding of Control serum LUMC to linear peptides [1],Binding of Control serum LUMC to looped peptides [1],Binding of serum 1a to looped/cyclic peptides of protein X2 of SARS-CoV Urbani [2],Binding of serum 1b to looped/cyclic peptides of protein X2 of SARS-CoV Urbani [2],Binding of serum 2 to looped/cyclic peptides of protein X2 of SARS-CoV Urbani [2],Binding of serum 6 to looped/cyclic peptides of protein X2 of SARS-CoV Urbani [2],Binding of serum 37 to looped/cyclic peptides of protein X2 of SARS-CoV Urbani [2],Binding of serum 62 to looped/cyclic peptides of protein X2 of SARS-CoV Urbani [2],Binding of serum London to looped/cyclic peptides of protein X2 of SARS-CoV Urbani [2],Binding of serum SARS-green to looped/cyclic peptides of protein X2 of SARS-CoV Urbani [2],Binding of serum SARS-yellow to looped/cyclic peptides of protein X2 of SARS-CoV Urbani [2],Binding of a rabbit serum to linear peptides [3],Binding of a rabbit serum to looped peptides [3],other results
CKYTQSTALQELLIQ,0.4,0.6,0.5,0.6,0.6,0.6,0.5,0.4,0.3,0.4,0.3,0.4,0.3,0.2,0.2,Binding of serum 1a to linear peptides of protein X2 [2]: 0.7; Binding of serum 1b to linear peptides of protein X2 [2]: 0.5; Binding of serum 2 to linear peptides of protein X2 [2]: 0.5; Binding of serum 6 to linear peptides of protein X2 [2]: 0.4; Binding of serum 37 to linear peptides of protein X2 [2]: 0.7; Binding of serum 62 to linear peptides of protein X2 [2]: 0.7; Binding of serum London to linear peptides of protein X2 [2]: 0.5; Binding of serum SARS-green to linear peptides of protein X2 [2]: 0.7; Binding of serum SARS-yellow to linear peptides of protein X2 [2]: 0.6
CLCKHKKVSTNLCTH,0.4,1.0,0.9,0.3,0.3,0.3,0.3,0.3,0.4,0.5,0.2,0.3,0.4,0.4,0.4,"Recognition of the peptide by sera of SARS-CoV infected individuals, and form (linear, looped/cyclic) in which it is recognized [2]: recognized in linear form"
CLKILVRYNTRGNTY,0.4,0.8,0.4,0.6,–,–,–,–,–,–,–,–,–,–,–,Binding of serum 1a to linear peptides of protein X5 of SARS-CoV Urbani [2]: 0.7; Binding of serum 1a to looped/cyclic peptides of protein X5 of SARS-CoV Urbani [2]: 0.5; Binding of serum 1b to linear peptides of protein X5 of SARS-CoV Urbani [2]: 0.7; Binding of serum 1b to looped/cyclic peptides of protein X5 of SARS-CoV Urbani [2]: 0.2; Binding of serum 2 to linear peptides of protein X5 of SARS-CoV Urbani [2]: 0.8; Binding of serum 2 to looped/cyclic peptides of protein X5 of SARS-CoV Urbani [2]: 0.5; Binding of serum 6 to linear peptides of protein X5 of SARS-CoV Urbani [2]: 0.8; Binding of serum 6 to looped/cyclic peptides of protein X5 of SARS-CoV Urbani [2]: 0.4; Binding of serum 37 to linear peptides of protein X5 of SARS-CoV Urbani [2]: 0.7; Binding of serum 37 to looped/cyclic peptides of protein X5 of SARS-CoV Urbani [2]: 0.5; Binding of serum 62 to linear peptides of protein X5 of SARS-CoV Urbani [2]: 0.8; Binding of serum 62 to looped/cyclic peptides of protein X5 of SARS-CoV Urbani [2]: 0.7; Binding of serum London to linear peptides of protein X5 of SARS-CoV Urbani [2]: 0.7; Binding of serum London to looped/cyclic peptides of protein X5 of SARS-CoV Urbani [2]: 0.2; Binding of serum SARS-green to linear peptides of protein X5 of SARS-CoV Urbani [2]: 0.7; Binding of serum SARS-green to looped/cyclic peptides of protein X5 of SARS-CoV Urbani [2]: 0.4; Binding of serum SARS-yellow to linear peptides of protein X5 of SARS-CoV Urbani [2]: 0.3; Binding of serum SARS-yellow to looped/cyclic peptides of protein X5 of SARS-CoV Urbani [2]: 0.8; Rabbit serum linear peptides [3]: 1.1; Rabbit serum looped peptides [3]: 0.2

# — patent US20070128217A1 (priority 2003, published 2007)
